Source: patent US20230265055A1, “STAT INIHIBITORY COMPOUNDS AND COMPOSITIONS” (JANPIX LIMITED, priority 2020, published 2023)

How the values were obtained:
MV4-11 cells = assay: MV4-11 Cell Cytotoxicity Assay; type: cell-based; conditions: Homo sapiens, 72 h incubation, CellTiter-Blue, read-out: IC50-MV-4-11 (NS)
Method: MV4-11 cells were grown in Iscove's Modified Dulbecco's Medium (IMDM) supplemented with 10% fetal bovine serum (FBS). 10,000 cells were plated per well in 96-well flat-bottom sterile culture plates with low-evaporation lids. After 24 h, inhibitors and a vehicle control (0.5% DMSO) were added and the cells were incubated for 72 h at 37° C. in 5% CO2. Inhibitors were examined in triplicate at a maximal concentration of 50 μM, followed by 1:2 dilutions in subsequent wells (25, 12.5, 6.25, 3.13, 1.56, 0.78, 0.39, 0.20 and 0.098 μM). After 72 h, the wells were treated with CellTiter-Blue® (20 μL/well), and the plates were incubated using standard cell culture conditions for 1 hour. Fluorescence was measured at 560/590 nm.

[1] = tested on: normal human fibroblast (NHF) cells; assay: NHF Cell Cytotoxicity Assay; type: cell-based; conditions: 72 hours, CellTiter-Blue, read-out: IC50—Pooled NHF
Method: Cell viability was examined a following treatment at various concentrations of inhibitor (0.097656-50 μM) using a cell Titer-Blue cell viability assay. 1×10^4 normal human fibroblast cells per well were plated in 96-well assay plates in culture medium. All cells were grown in DMEM, IMDM and RPMI-1640 were supplemented with 10% FBS. After 24 hours, test compounds and vehicle controls were added to appropriate wells so the final volume was 100 μl in each well. The cells were cultured for the desired test exposure period (72 hours) at 37° C. and 5% CO2. The assay plates were removed from 37° C. incubator and 20 μL/well of CellTiter-Blue® Reagent was added. […] For each sample well, value was normalized between the DMSO control and the highest concentration in case of plateau and converted into a percentage. In the absence of plateau, minimum lecture is obtained from a different sample within the same experiment. For each concentration, the four replicates are averaged, and standard deviation calculated. Data was fitted to a log(inhibitor) vs response curve with variable slope model using Microsoft Excel, obtaining IC50 and Hill slope variables.
A person skilled in the art would appreciate that a higher IC50 value in this NHF assay can indicate lower off-target effects.

SMILES | IC50 (MV4-11 cells) [nM] | IC50 [1] [nM]
CCOc1cc(C(=O)O)ccc1N(Cc1cc(C2CC2)cc(C2CC2)c1)C(=O)CN(Cc1cccc(F)c1F)S(=O)(=O)c1cc(F)c(F)c(F)c1F [Compound 9, 4-[(3,5-dicyclopropylphenyl)methyl-[2-[(2,3-difluorophenyl)methyl-(2,3,4,5-tetrafluorophenyl)sulfonyl-amino]acetyl]amino]-3-ethoxy-benzoic acid] | 1200 to 6000 | 
CCOc1cc(C(=O)O)ccc1N(Cc1cc(C2CC2)cc(C2CC2)c1)C(=O)CN(Cc1ccccc1F)S(=O)(=O)c1cc(F)c(F)c(F)c1F [Compound 11, 4-[(3,5-dicyclopropylphenyl)methyl-[2-[(2-fluorophenyl)methyl-(2,3,4,5-tetrafluorophenyl)sulfonyl-amino]acetyl]amino]-3-ethoxy-benzoic acid] | 1200 to 6000 | 
CCOc1cc(C(=O)O)ccc1N(Cc1cc(C2CC2)cc(C2CC2)c1)C(=O)CN(Cc1c(F)cc(F)cc1F)S(=O)(=O)c1cc(F)c(F)c(F)c1F [Compound 12, 4-[(3,5-dicyclopropylphenyl)methyl-[2-[(2,3,4,5-tetrafluorophenyl)sulfonyl-[(2,4,6-trifluorophenyl)methyl]amino]acetyl]amino]-3-ethoxy-benzoic acid] | 400 to 1200 | 
CCOc1cc(C(=O)O)ccc1N(Cc1cc(C2CC2)cc(C2CC2)c1)C(=O)CN(Cc1ccccc1C(F)(F)F)S(=O)(=O)c1c(F)cc(F)c(F)c1F [Compound 14, 4-[(3,5-dicyclopropylphenyl)methyl-[2-[(2,3,4,6-tetrafluorophenyl)sulfonyl-[[2-(trifluoromethyl)phenyl]methyl]amino]acetyl]amino]-3-ethoxy-benzoic acid] | 1200 to 6000 | 
CCOc1cc(C(=O)O)ccc1N(Cc1cc(C2CC2)cc(C2CC2)c1)C(=O)CN(Cc1ccc(F)cc1Cl)S(=O)(=O)c1c(F)cc(F)c(F)c1F [Compound 15, 4-[[2-[(2-chloro-4-fluoro-phenyl)methyl-(2,3,4,6-tetrafluorophenyl)sulfonyl-amino]acetyl]-[(3,5-dicyclopropylphenyl)methyl]amino]-3-ethoxy-benzoic acid] | 1200 to 6000 | 
CCOc1cc(C(=O)O)c(F)cc1N(Cc1cc(C2CC2)cc(C2CC2)c1)C(=O)CN(Cc1ccccc1C#N)S(=O)(=O)c1cc(F)c(F)c(F)c1F [Compound 18, 4-[[2-[(2-cyanophenyl)methyl-(2,3,4,5-tetrafluorophenyl)sulfonyl-amino]acetyl]-[(3,5-dicyclopropylphenyl)methyl]amino]-5-ethoxy-2-fluoro-benzoic acid] | 400 to 1200 | ≥ 24000
CCOc1cc(C(=O)O)c(F)cc1N(Cc1cc(C2CC2)cc(C2CC2)c1)C(=O)CN(Cc1ccccc1C#N)S(=O)(=O)c1c(F)cc(F)c(F)c1F [Compound 19, 4-[[2-[(2-cyanophenyl)methyl-(2,3,4,6-tetrafluorophenyl)sulfonyl-amino]acetyl]-[(3,5-dicyclopropylphenyl)methyl]amino]-5-ethoxy-2-fluoro-benzoic acid] | 1200 to 6000 | 
CCOc1cc(C(=O)O)ccc1N(Cc1cc(C2CC2)cc(C2CC2)c1)C(=O)CN(Cc1ccccc1C(F)(F)F)S(=O)(=O)c1c(Br)cc(F)c(F)c1F [Compound 21, 4-[[2-[(6-bromo-2,3,4-trifluoro-phenyl)sulfonyl-[[2-(trifluoromethyl)phenyl]methyl]amino]acetyl]-[(3,5-dicyclopropylphenyl)methyl]amino]-3-ethoxy-benzoic acid] | 1200 to 6000 | ≥ 24000
CCOc1cc(C(=O)O)ccc1N(Cc1cc(C2CC2)cc(N2CCCC2)c1)C(=O)CN(Cc1ccccc1C#N)S(=O)(=O)c1cc(F)c(F)c(F)c1F [Compound 22, 4-[[2-[(2-cyanophenyl)methyl-(2,3,4,5-tetrafluorophenyl)sulfonyl-amino]acetyl]-[(3-cyclopropyl-5-pyrrolidin-1-yl-phenyl)methyl]amino]-3-ethoxy-benzoic acid] | 400 to 1200 | 
CCOc1cc(C(=O)O)ccc1N(Cc1cc(C2CC2)cc(N2CCCC2)c1)C(=O)CN(Cc1ccccc1C#N)S(=O)(=O)c1c(F)cc(F)c(F)c1F [Compound 23, 4-[[2-[(2-cyanophenyl)methyl-(2,3,4,6-tetrafluorophenyl)sulfonyl-amino]acetyl]-[(3-cyclopropyl-5-pyrrolidin-1-yl-phenyl)methyl]amino]-3-ethoxy-benzoic acid] | 1200 to 6000 | 
CCOc1cc(C(=O)O)ccc1N(Cc1cc(C2CC2)cc(C(C)(C)C)c1)C(=O)CN(Cc1ccccc1C#N)S(=O)(=O)c1c(F)cc(F)c(F)c1F [Compound 25, 4-[(3-tert-butyl-5-cyclopropyl-phenyl)methyl-[2-[(2-cyanophenyl)methyl-(2,3,4,6-tetrafluorophenyl)sulfonyl-amino]acetyl]amino]-3-ethoxy-benzoic acid] | 1200 to 6000 | 
CCOc1cc(C(=O)O)ccc1N(Cc1cccc(N2CCCC2)c1)C(=O)CN(Cc1ccccc1C#N)S(=O)(=O)c1cc(F)c(F)c(F)c1F [Compound 26, 4-[[2-[(2-cyanophenyl)methyl-(2,3,4,5-tetrafluorophenyl)sulfonyl-amino]acetyl]-[(3-pyrrolidin-1-ylphenyl)methyl]amino]-3-ethoxy-benzoic acid] | 400 to 1200 | 
CCOc1cc(C(=O)O)ccc1N(Cc1cc(OC(C)C)cc(C2CC2)c1)C(=O)CN(Cc1ccccc1C#N)S(=O)(=O)c1cc(F)c(F)c(F)c1F [Compound 32, 4-[[2-[(2-cyanophenyl)methyl-(2,3,4,5-tetrafluorophenyl)sulfonyl-amino]acetyl]-[(3-cyclopropyl-5-isopropoxy-phenyl)methyl]amino]-3-ethoxy-benzoic acid] | 1200 to 6000 | 
CCOc1cc(C(=O)O)ccc1N(Cc1cccc(OC(C)C)c1)C(=O)CN(Cc1ccccc1C#N)S(=O)(=O)c1cc(F)c(F)c(F)c1F [Compound 33, 4-[[2-[(2-cyanophenyl)methyl-(2,3,4,5-tetrafluorophenyl)sulfonyl-amino]acetyl]-[(3-isopropoxyphenyl)methyl]amino]-3-ethoxy-benzoic acid] | 1200 to 6000 | 
CCOc1cc(C(=O)O)ccc1N(Cc1cc(C2CC2)cc(N2CCCC2)c1)C(=O)CN(Cc1ccccc1C#N)S(=O)(=O)c1c(Br)cc(F)c(F)c1F [Compound 36, 4-[[2-[(6-bromo-2,3,4-trifluoro-phenyl)sulfonyl-[(2-cyanophenyl)methyl]amino]acetyl]-[(3-cyclopropyl-5-pyrrolidin-1-yl-phenyl)methyl]amino]-3-ethoxy-benzoic acid] | 1200 to 6000 | ≥ 24000
COc1cc(C(=O)O)ccc1N(Cc1cc(C2CC2)cc(C(C)(C)C)c1)C(=O)CN(Cc1cnccc1C(F)(F)F)S(=O)(=O)c1c(F)c(F)cc(F)c1F [Compound 46, 4-(N-(3-(tert-butyl)-5-cyclopropylbenzyl)-2-((2,3,5,6-tetrafluoro-N-((4-(trifluoromethyl)pyridin-3-yl)methyl)phenyl)sulfonamido)acetamido)-3-methoxy benzoic acid] | > 6000 | 
CCOc1cc(C(=O)O)ccc1N(Cc1cc(C2CC2)cc(C2CC2)c1)C(=O)CNS(=O)(=O)c1cc(F)c(F)c(F)c1F [Compound 47, 4-(N-(3,5-dicyclopropylbenzyl)-2-((2,3,4,5-tetrafluorophenyl)sulfonamido)acetamido)-3-ethoxy benzoic acid] | > 6000 | 
CCOc1cc(C(=O)O)ccc1NC(=O)CN(Cc1ccccc1C#N)S(=O)(=O)c1cc(F)c(F)c(F)c1F [Compound 48, 4-(2-((N-(2-cyanobenzyl)-2,3,4,5-tetrafluorophenyl)sulfonamido)acetamido)-3-ethoxy benzoic acid] | 1200 to 6000 | 
O=C(O)c1ccc(N(Cc2cc(C3CC3)cc(C3CC3)c2)C(=O)CN(Cc2ccccc2Cl)S(=O)(=O)c2c(F)c(F)c(F)c(F)c2Cl)c(O)c1 [Compound 73, 4-(2-((2-chloro-N-(2-chlorobenzyl)-3,4,5,6-tetrafluorophenyl)sulfonamido)-N-(3,5-dicyclopropylbenzyl)acetamido)-3-hydroxybenzoic acid] | 400 to 1200 | ≥ 24000
O=C(O)c1ccc(N(Cc2cc(C3CC3)cc(C3CC3)c2)C(=O)CN(Cc2ccccc2Cl)S(=O)(=O)c2c(F)c(F)c(F)c(F)c2Cl)cc1O [Compound 76, 4-(2-((2-chloro-N-(2-chlorobenzyl)-3,4,5,6-tetrafluorophenyl)sulfonamido)-N-(3,5-dicyclopropylbenzyl)acetamido)-2-hydroxybenzoic acid] | 1200 to 6000 | ≥ 24000
